Measured values reported in US7241570B2, “Method of screening for agents that regulate the shedding of membrane bound proteins and methods of use” (University of Utah Research Foundation, priority 2001, dated 2007).

Key:
[1] = test system: TNFα release from liver and spleen cell suspensions; test: TNFα ectodomain shedding from liver and spleen cell suspensions (ELISA); assay type: cell-based, mouse; conditions: LPS 5 μg/mL, PMA 50 ng/mL, liver and spleen cell suspensions of newborn mice
Experimental: TACE was originally identified as the enzyme that proteolytically releases TNFα from the cell surface. Black, R. et al. Nature 385, 729-733 (1997); Moss, M. L. et al. Nature 385, 733-736 (1997). Whether deleting DGKδ affected ectodomain shedding of TNFα from liver and spleen cell suspensions was tested—where hematopoietic activity is highest in newborn mice. Tamura, K. et al. Cell 102, 221-231 (2000). To induce release on TNFα, the cell suspensions were stimulated with lipopolysaccharide (LPS, […]), PMA (50 ng/mL), or a combination of LPS (5 μg/mL) and PMA (50 ng/mL). As measured by ELISA, both agents induced release of TNFα into the medium, with LPS inducing a five-fold increase and PMA causing a three-fold increase. Combining LPS and PMA increased TNFα shedding twenty-fold. […] Reddy, P. et al. J. Biol. Chem. 275, 14608-14614 (2000)

[2] = test system: phosphorylated ERK1 and 2; test: ERK phosphorylation after exogenous EGF in primary embryonic fibroblasts (immunoblot densitometry); assay type: cell-based, mouse
Excerpt: Whether signaling downstream of EGFR was affected in DGKδ mutant mice was also examined. Since the MAPK pathway is a major route of EGFR signaling, ERK phosphorylation was examined in cell lines developed from knockout mice. Prenzel, N., et al. Endocrine-Related Cancer 8, 11-31 (2001). In primary embryonic fibroblasts from wild-type mice, exogenous EGF caused a 2.2 fold increase in phosphorylated ERK1 and 2 as judged by densitometry of the immunoblot bands (FIG. 3). […] Activation of EGFR signaling is known to mediate stress fiber formation induced by serum factors. Prenzel, N., et al. Endocrine-Related Cancer 8, 11-31 (2001). […] Thus, whether DGKδ affects the activity of TACE was examined next.

[3] = test system: phosphatidylinositol 5-kinases; conditions: cited from earlier work
[4] = test system: DGKδ and TACE; test: Co-immunoprecipitation of DGKδ and myc-TACE overexpressed in COS7 cells; assay type: cell-based; conditions: COS7 cells after starvation (0.5% serum for 2 hrs)
Excerpt: According to previous experiments, DGKδ appears to regulate the activity of TACE toward some of its substrates. Based on the data, however, it is not clear whether DGKδ directly activates TACE or indirectly affects its activity through another protein. It was hypothesized that in order to regulate TACE, DGKδ must associate with it or a complex of proteins that contains TACE. To address whether this occurs in vivo, the enzymes were overexpressed in COS7 cells and then co-immunoprecipitation analysis was performed. Myc-tagged TACE in cell lysates was immunoprecipitated with an anti-myc monoclonal antibody, and then immune complexes were analyzed for co-immunoprecipitation of DGKδ by immunoblotting. When cells were grown in normal medium (10% FBS) DGKδ clearly co-immunoprecipitated with TACE (FIG. 6 left). Controls using normal IgG for immunoprecipitation instead of anti-myc antibody, or where anti-myc was used, but myc-TACE was not included in the transfection, established the specificity of DGKδ-TACE co-immunoprecipitation. Two agents previously shown to induce TACE activity are serum factors and PMA. […] Thus, stimuli that increase TACE activity enhance an interaction between DGKδ and TACE, providing further evidence that DGKδ positively regulates TACE activity.

[5] = test system: β-APP shedding from embryonic fibroblasts; test: Release of endogenous β-APP from embryonic fibroblasts; assay type: cell-based, mouse
Excerpt: TACE is the only enzyme known to shed soluble TGFα, a process enhanced by stimulation with serum or PMA. Peschon, J. J. et al. Science 282, 1281-1284 (1998). It is not known whether or not the cytoplasmic tail of TACE is required to activate TGFα shedding. To test if DGKδ affected release of TGFα, the amounts of soluble TGFα in the culture media of dgkd^−/− and wild-type embryonic fibroblasts transfected with pro-TGFα were compared. […] Supporting a role for DGKδ in stimulated TGFα shedding, PMA-induced shedding of TGFα by dgkd^−/− cells was approximately 25% that of stimulated wild-type cells (FIG. 4A, left). […] Since TACE is the only enzyme known to shed TGFα, DGKδ was likely affecting TACE. TACE is also known to cleave β-APP, so the release of endogenous β-APP from embryonic fibroblasts was examined next. Reddy, P. et al. J. Biol. Chem. 275, 14608-14614 (2000).

Compound: lipopolysaccharide [LPS]
- increase in release of TNFα into the medium [1]: five-fold

Compound: EGF: exogenous EGF, EGF receptor ligand
- increase in phosphorylated ERK1 and 2 ([2]; primary embryonic fibroblasts from DGKδ null mice): 2.1 fold
- increase in phosphorylated ERK1 and 2 ([2]; primary embryonic fibroblasts from wild-type mice, densitometry of immunoblot bands): 2.2 fold

Compound: phosphatidic acid [PA]
- activity of phosphatidylinositol 5-kinases in the presence of PA [3]: 8-14 fold

Compound: CCCCCCCCCCCCCC(=O)O[C@@H]1[C@@H](C)[C@@]2(O)[C@@H](C=C(CO)C[C@]3(O)C(=O)C(C)=C[C@@H]23)[C@@H]2C(C)(C)[C@]12OC(C)=O [PMA]
- increase in release of TNFα into the medium [1]: three-fold
- co-immunoprecipitation of DGKδ and TACE [4]: significantly increased
- increase in β-APP shedding ([5]; dgkd+/+ embryonic fibroblasts): 6-8 fold
- increase in β-APP shedding ([5]; dgkd−/− embryonic fibroblasts): moderate increase
